# According to patent publication US7390788B2, “Peptide pharmaceutical compositions” (priority 2005, dated 2008):
# Where two headings read alike, the source gives them in different places.
# How the values were obtained:
# [1] = DAPTA fibril formation / aggregation in solution by EM (Example 3); format: physicochemical
# Experimental: Preparation of DAPTA solutions. DAPTA was dissolved in water, and solutions maintained at various temperatures and times. To prepare fibrils, DAPTA was prepared at 10 mgs/mL in water and stored overnight at 4° C.
# Determining fibril formation.
# In solution, DAPTA can be shown to form ordered aggregates by EM, FTIR, and CD and dye binding. Aggregation is promoted by concentration, increased ionic strength, and reduced temperature. Although the kinetics of aggregation appear to vary, from preparation to preparation, aggregation appears to be a property associated with all batches of DAPTA examined as measured by EM.
# Fibrillization can be observed in solutions prepared in 0.9% saline (10 mg/mL) when stored at 4° C. in less than 1 hour. At room or ambient temperature, fibril formation can be observed within 48 hours, although there is variation from preparation to preparation. In distilled water, DAPTA solutions at 10 mg/ml readily form aggregates at 4 deg. C., within 2 hrs, and at room temperature, within 1-7 days.
# HIV BaL = format: cell-based, HIV-1; conditions: dried
# Experimental: Peptide was dissolved at 5 mg/ml in water, stored at ambient temperature, ca 23-27° C., and samples tested for biological activity in an HIV infection assay.
# Inhibition of HIV infection is studied by utilizing an infection assay in which GHOST CD4 CCR5 cells are infected with HIV BaL, an R5 tropic isolate (Ruff, M R et al., 2001). Infection is detected via viral induction of the hGFP gene (green fluorescent protein) 48 hrs post-infection. Trays are measured in a plate reader to determine fluorescence intensity. All infections are performed by adding fresh culture medium containing approximately 1,000 infectious units of HIV-1 per well (96-well plates).
# Samples were then aged by storage at ambient temperature (ca 25° C.) for 14 days prior to antiviral testing. […] In FIG. 5, only the short term 6 hour sample is stored at 4° C., while the other samples are stored at 37° C.
# The peptide was dissolved in the indicated concentration of TFE in water and then shaken or agitated for 24 hrs at 37° C. The peptide was subsequently dried down, and the TFE/water mixture removed under vacuum. […] Although TFE is removed, residual traces of TFE within acceptable range for human consumption may remain.
# Inhibition of HIV infection was studied by utilizing an infection assay using GHOST CD4 as previously described by Ruff, M R et al., 2001. CCR5 cells are infected with HIV BaL, an R5 tropic isolate. Infection is detected via viral induction of the hGFP gene (green fluorescent protein) about 48 hours post-infection. Trays were measured in a plate reader to determine fluorescence intensity. All infections were performed by adding fresh culture medium containing approximately 1,000 infectious units of HIV-1 per well (96-well plates).
# HIV [2] = assay: Inhibition of HIV infectivity in vitro by stored DAPTA solutions; format: cell-based
# Experimental: Aggregation is discovered to be associated with a loss of biological activity in vitro. Typically, the recommended protocol is to have DAPTA stored at 0.1 mM solutions in water at 4° C.
# Aggregation is reduced in the presence of trifluoroethanol (TFE). TFE was selected because of its property of reducing certain types of protein-protein interactions. DAPTA was dissolved in either distilled water, or solutions containing between 60% and 100% TFE. Aggregation was evaluated by assaying inhibition of HIV infectivity, in vitro. […] Also, TFE is capable of disassociating preformed aggregates of DAPTA. Aggregates of DAPTA, formed in distilled water were disrupted by addition of TFE to 80%, as measured by EM.
# envelop (gp120) = conditions: 1987 report; cited from earlier work
# [3] = Phase I, human; cited from earlier work
# HIV [4] = conditions: cited from earlier work
# [5] = 6 mg/day for 12 weeks; cited from earlier work
# [6] = 2 mg three times daily intranasally, cited from earlier work
# [7] = cited from earlier work
# [8] = patients with moderate neuro-psychological impairment; cited from earlier work
# [9] = subcutaneously, cited from earlier work
# nasal mucosa = conditions: in vivo; cited from earlier work
# isolated nasal cilia = conditions: cited from earlier work
substance,measurement,setting,value
D-ala^1-peptide T-amide [DAPTA],Time until fibrillization can be observed,"[1]; 0.9% saline, 10 mg/mL, 4° C.",less than 1 hour
same,Time until fibril formation can be observed,"[1]; 0.9% saline, 10 mg/mL, room or ambient temperature",≤ 48 h
same,"Effect of TFE on preformed aggregates, by EM","[1]; aggregates formed in distilled water, TFE added to 80%",disrupted
same,Time until aggregates form,"[1]; distilled water, 10 mg/ml, 4 deg. C.",≤ 2 h
same,Percent Reduction in HIV Infection,"HIV BaL; 0.1 nM DAPTA, TFE Concentration 40 %, shaken 24 hrs at 37° C., reconstituted in water, stored about 3 days",0 ± 2%
same,Percent Reduction in HIV Infection,"HIV BaL; 0.1 nM DAPTA, TFE Concentration 60 %, shaken 24 hrs at 37° C., reconstituted in water, stored about 3 days",20 ± 4%
same,Percent Reduction in HIV Infection,"HIV BaL; 0.1 nM DAPTA, TFE Concentration 100 %, shaken 24 hrs at 37° C., reconstituted in water, stored about 3 days",98 ± 3%
same,Percent Reduction in HIV Infection,"HIV BaL; 80% TFE, shaken 12 hrs at 37 degrees Celsius, in water about three days",70 ± 4%
same,Percent Reduction in HIV Infection,"HIV BaL; 80% TFE, shaken 48 hrs at 37 degrees Celsius, in water about three days",100 ± 3%
same,Percent Reduction in HIV Infection,"HIV BaL; 80% TFE, shaken about 24 hours at 37 ° C., in water about three days",100 ± 5%
same,Percent Reduction in HIV Infection,"HIV BaL; 80% TFE, shaken about 24 hours at Room Temp., in water about three days",70 ± 6%
same,Storage time to substantial loss of activity (HIV uptake inhibition in vitro),HIV [2]; 0.1 mM solutions in water at 4° C.,about 6 weeks
same,Activity retained on storage (inhibition of HIV infectivity in vitro),HIV [2]; stored in TFE between 60% and 100% vs water,retained more activity
same,Concentration that blocks envelop (gp120) binding and inhibits viral infectivity,envelop (gp120),10 pM
same,Toxicity,[3],complete lack of toxicity
same,Virus levels in stored frozen plasma,HIV [4]; blind NIMH analysis,significant (p<0.04) treatment effect
same,Clinical benefits versus placebo,HIV [4]; more cognitively impaired patients,significant clinical benefits versus placebo
same,Treatment of painful peripheral neuropathy vs placebo,[5],no statistically significant differences
same,Neuropsychological performance vs placebo,[6]; at least four months of treatment,no difference
same,Neuropsychological improvement after adjustment for baseline CD4 count,[6],greater improvement (p=0.07)
same,Patients with improved neuro-psychological performance,[7]; high dose (15 mg daily),4/5
same,Patients with improved neuro-psychological performance,[7]; low dose (1.5 mg daily),1/4
same,Cognitive and neuromotor function compared with controls,[8],improved
same,Adverse drug effects,[9]; 3 to 70 weeks,No adverse drug effects were noted
same,Lower limb pain,"[9]; initial dose 10 mg daily, nine individuals",complete or subjectively significant resolution of lower limb pain
benzalkonium chloride [BAC],Damage to the nasal mucosa,nasal mucosa,no significant damage
same,Mucosal ciliary clearance after application,nasal mucosa,slight prolongation
same,Nasal mucosal function,nasal mucosa,no detectable effect
same,Saccharine transport time or indicators of proinflammatory effects,nasal mucosa,did not alter
same,Ciliotoxicity,isolated nasal cilia,ciliotoxic
